Target: T1, human macrophage elastase (HME/hMMP-12) (Homo sapiens, UniProt P39900)
T1 construct: 0.5 nM HME; purchased R&D Systems 917-MP
Assay: In vitro HME inhibition test (standard or high-sensitivity)
Format: biochemical
Details: in some cases mean values
Experimental: The potency of the compounds according to the invention with respect to HME (MMP-12) is determined in an in vitro inhibition test. The HME-mediated amidolytic cleavage of a suitable peptide substrate leads to an increase in fluorescent light therein. The signal intensity of the fluorescent light is directly proportional to the enzyme activity. The active concentration of a test compound at which half the enzyme is inhibited (50% signal intensity of the fluorescent light) is reported as the IC50 value.
In a 384 hole microtiter plate, in a total test volume of 41 the test buffer (0.1 M HEPES pH 7.4, 0.15 M NaCl, 0.03 M CaCl2, 0.004 mM ZnCl2, 0.02 M EDTA, 0.005% Brij®), the enzyme (0.5 nM HME; from R&D Systems, 917-MP, autocatalytic activation according to the manufacturer's instructions) and the intramolecularly quenched substrate [5 μM Mca-Pro-Leu-Gly-Leu-Glu-Glu-Ala-Dap(Dnp)-NH2; Bachem, M-2670] are incubated in the absence and presence of the test substance (as a solution in DMSO) at 37° C. for two hours. The fluorescence intensity of the test mixtures is measured (excitation […], emission 393 nm). The IC50 values are ascertained by plotting the fluorescent light intensity against the active ingredient concentration.
In this case, an enzyme concentration ten times lower is used (final concentration, for example, 0.05 nM) in order to achieve an elevated test sensitivity. The incubation period chosen for the test is correspondingly longer (for example 16 hours).

T1 sequence (P39900 106-470): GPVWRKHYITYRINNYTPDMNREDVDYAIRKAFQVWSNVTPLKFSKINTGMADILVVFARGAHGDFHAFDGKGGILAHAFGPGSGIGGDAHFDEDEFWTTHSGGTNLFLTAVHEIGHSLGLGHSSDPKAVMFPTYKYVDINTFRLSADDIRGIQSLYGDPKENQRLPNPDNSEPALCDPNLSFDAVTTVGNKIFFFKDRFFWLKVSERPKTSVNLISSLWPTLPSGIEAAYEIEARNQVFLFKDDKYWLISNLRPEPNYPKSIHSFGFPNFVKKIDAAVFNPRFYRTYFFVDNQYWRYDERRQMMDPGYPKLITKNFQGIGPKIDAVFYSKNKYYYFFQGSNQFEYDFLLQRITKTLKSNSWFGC

Compound | IC50 [nM]
O=C(O)[C@H]1[C@H](Cn2nnc3ccc(C(F)(F)F)cc3c2=O)CC[C@@H]1C(=O)c1ccc(SCc2cccc(Cl)c2)cc1 (racemic) [Example 76, (+/−)-(1RS,2RS,5SR)-2-{4-[(3-Chlorobenzyl)sulphanyl]benzoyl}-5-{[4-oxo-6-(trifluoromethyl)-1,2,3-benzotriazin-3(4H)-yl]methyl}cyclopentanecarboxylic acid] | 0.1
O=C(O)[C@H]1[C@H](Cn2nnc3ccc(C(F)(F)F)cc3c2=O)CC[C@@H]1C(=O)c1ccc(SCCc2ccccc2)cc1 (racemic) [Example 82, (+/−)-(1RS,2SR,5RS)-2-{[4-Oxo-6-(trifluoromethyl)-1,2,3-benzotriazin-3(4H)-yl]methyl}-5-{4-[(2-phenylethyl)sulphanyl]benzoyl}cyclopentanecarboxylic acid] | 0.12
O=C(O)[C@H]1[C@H](Cn2nnc3ccc(C(F)(F)F)cc3c2=O)CC[C@@H]1C(=O)c1ccc(SCC2CCCCC2)cc1 (racemic) [Example 85] | 0.22
Cc1ccc2nnn(C[C@@H]3CC[C@H](C(=O)c4ccc(OCc5ccc(F)cc5)cc4)[C@H]3C(=O)O)c(=O)c2c1 (racemic) [Example 94, (+/−)-(1RS,2RS,5SR)-2-{4-[(4-Fluorobenzyl)oxy]benzoyl}-5-[(6-methyl-4-oxo-1,2,3-benzotriazin-3(4H)-yl)methyl]cyclopentanecarboxylic acid] | 0.055
Cc1ccc2nnn(C[C@@H]3CC[C@H](C(=O)c4ccc(OCCc5ccccc5)cc4)[C@H]3C(=O)O)c(=O)c2c1 (racemic) [Example 112, (+/−)-(1RS,2SR,5RS)-2-[(6-Methyl-4-oxo-1,2,3-benzotriazin-3(4H)-yl)methyl]-5-[4-(2-phenylethoxy)benzoyl]cyclopentanecarboxylic acid] | 0.66
Cc1ccc2nnn(C[C@@H]3CC[C@H](C(=O)c4ccc(OCCCc5ccccc5)cc4)[C@H]3C(=O)O)c(=O)c2c1 (racemic) [Example 115, (+/−)-(1RS,2SR,5RS)-2-[(6-Methyl-4-oxo-1,2,3-benzotriazin-3(4H)-yl)methyl]-5-[4-(3-phenylpropoxy)benzoyl]cyclopentanecarboxylic acid] | 0.13
Cc1ccc2nnn(C[C@@H]3CC[C@H](C(=O)c4ccc(OCC5CCCCC5)cc4)[C@H]3C(=O)O)c(=O)c2c1 (racemic) [Example 116, (+/−)-(1RS,2RS,5SR)-2-[4-(Cyclohexylmethoxy)benzoyl]-5-[(6-methyl-4-oxo-1,2,3-benzotriazin-3(4H)-yl)methyl]cyclopentanecarboxylic acid] | 0.093
Cc1ccc2nnn(C[C@@H]3CC[C@H](C(=O)c4ccc(OCC5CCCC5)cc4)[C@H]3C(=O)O)c(=O)c2c1 (racemic) [Example 119, (+/−)-(1RS,2RS,5SR)-2-[4-(Cyclopentylmethoxy)benzoyl]-5-[(6-methyl-4-oxo-1,2,3-benzotriazin-3(4H)-yl)methyl]cyclopentanecarboxylic acid] | 0.048
CCCCCCOc1ccc(C(=O)[C@H]2CC[C@@H](Cn3nnc4ccc(C)cc4c3=O)[C@@H]2C(=O)O)cc1 (racemic) [Example 120, (+/−)-(1RS,2RS,5SR)-2-[4-(Hexyloxy)benzoyl]-5-[(6-methyl-4-oxo-1,2,3-benzotriazin-3(4H)-yl)methyl]cyclopentanecarboxylic acid] | 0.1
CCCCCOc1ccc(C(=O)[C@@H]2CC[C@H](Cn3nnc4ccccc4c3=O)[C@H]2C(=O)O)cc1 (single isomer, unassigned) [Example 8, (+)-(1RS,2SR,5RS)-2-[(4-Oxo-1,2,3-benzotriazin-3(4H)-yl)methyl]-5-[4-(pentyloxy)benzoyl]cyclopentanecarboxylic acid] | 0.21
CCCCCOc1ccc(C(=O)[C@@H]2CC[C@H](Cn3nnc4ccccc4c3=O)[C@H]2C(=O)O)cc1 (single isomer, unassigned) [Example 9, (−)-(1RS,2SR,5RS)-2-[(4-Oxo-1,2,3-benzotriazin-3(4H)-yl)methyl]-5-[4-(pentyloxy)benzoyl]cyclopentanecarboxylic acid] | 145
O=C(O)[C@@H]1[C@@H](Cn2nnc3ccc(C(F)(F)F)cc3c2=O)CC[C@H]1C(=O)c1ccc(OCc2ccc(F)cc2)cc1 (single isomer, unassigned) [Example 14, (−)-(1RS,2RS,5SR)-2-{4-[(4-Fluorobenzyl)oxy]benzoyl}-5-{[4-oxo-6-(trifluoromethyl)-1,2,3-benzotriazin-3(4H)-yl]methyl}cyclopentanecarboxylic acid] | 10
Cc1cccc(COc2ccc(C(=O)[C@@H]3CC[C@H](Cn4nnc5ccc(C(F)(F)F)cc5c4=O)[C@H]3C(=O)O)cc2)c1 (single isomer, unassigned) [Example 17, (−)-(1RS,2RS,5SR)-2-{4-[(3-Methylbenzyl)oxy]benzoyl}-5-{[4-oxo-6-(trifluoromethyl)-1,2,3-benzotriazin-3(4H)-yl]methyl}cyclopentanecarboxylic acid] | 48
O=C(O)[C@@H]1[C@@H](Cn2nnc3ccc(C(F)(F)F)cc3c2=O)CC[C@H]1C(=O)c1ccc(OCc2cccc(C(F)(F)F)c2)cc1 (single isomer, unassigned) [Example 20, (−)-(1RS,2SR,5RS)-2-{[4-Oxo-6-(trifluoromethyl)-1,2,3-benzotriazin-3(4H)-yl]methyl}-5-(4-{[3-(trifluoromethyl)benzyl]oxy}benzoyl)cyclopentanecarboxylic acid] | 4.6
O=C(O)[C@@H]1[C@@H](Cn2nnc3ccc(C(F)(F)F)cc3c2=O)CC[C@H]1C(=O)c1ccc(OCc2cccc(Cl)c2)cc1 (single isomer, unassigned) [Example 22, (−)-(1RS,2RS,5SR)-2-{4-[(3-Chlorobenzyl)oxy]benzoyl}-5-{[4-oxo-6-(trifluoromethyl)-1,2,3-benzotriazin-3(4H)-yl]methyl}cyclopentanecarboxylic acid] | 170
O=C(O)[C@@H]1[C@@H](Cn2nnc3ccc(C(F)(F)F)cc3c2=O)CC[C@H]1C(=O)c1ccc(OCc2ccc(Cl)cc2)cc1 (single isomer, unassigned) [Example 26, (−)-(1RS,2RS,5SR)-2-{4-[(4-Chlorobenzyl)oxy]benzoyl}-5-{[4-oxo-6-(trifluoromethyl)-1,2,3-benzotriazin-3(4H)-yl]methyl}cyclopentanecarboxylic acid] | 1
O=C(O)[C@@H]1[C@@H](Cn2nnc3ccc(C(F)(F)F)cc3c2=O)CC[C@H]1C(=O)c1ccc(OCc2cccc(N3CCOC3=O)c2)cc1 (single isomer, unassigned) [Example 34, (−)-(1RS,2RS,5SR)-2-(4-{[3-(2-Oxo-1,3-oxazolidin-3-yl)benzyl]oxy}benzoyl)-5-{[4-oxo-6-(trifluoromethyl)-1,2,3-benzotriazin-3(4H)-yl]methyl}cyclopentanecarboxylic acid] | 160
O=C(O)[C@@H]1[C@@H](Cn2nnc3ccc(C(F)(F)F)cc3c2=O)CC[C@H]1C(=O)c1ccc(OCCc2ccccc2)cc1 (single isomer, unassigned) [Example 37, (+)-(1RS,2SR,5RS)-2-{[4-Oxo-6-(trifluoromethyl)-1,2,3-benzotriazin-3(4H)-yl]methyl}-5-[4-(2-phenylethoxy)benzoyl]cyclopentanecarboxylic acid] | 0.08
O=C(O)[C@@H]1[C@@H](Cn2nnc3ccc(C(F)(F)F)cc3c2=O)CC[C@H]1C(=O)c1ccc(OCCc2ccccc2)cc1 (single isomer, unassigned) [Example 38, (−)-(1RS,2SR,5RS)-2-{[4-Oxo-6-(trifluoromethyl)-1,2,3-benzotriazin-3(4H)-yl]methyl}-5-[4-(2-phenylethoxy)benzoyl]cyclopentanecarboxylic acid] | 350
O=C(O)[C@@H]1[C@@H](Cn2nnc3ccc(C(F)(F)F)cc3c2=O)CC[C@H]1C(=O)c1ccc(OCC2CCCCC2)cc1 (single isomer, unassigned) [Example 42, (−)-(1RS,2RS,5SR)-2-[4-(Cyclohexylmethoxy)benzoyl]-5-{[4-oxo-6-(trifluoromethyl)-1,2,3-benzotriazin-3(4H)-yl]methyl}cyclopentanecarboxylic acid] | 39
O=C(O)[C@@H]1[C@@H](Cn2nnc3ccc(C(F)(F)F)cc3c2=O)CC[C@H]1C(=O)c1ccc(OCC2CCCC2)cc1 (single isomer, unassigned) [Example 45, (−)-(1RS,2RS,5SR)-2-[4-(Cyclopentylmethoxy)benzoyl]-5-{[4-oxo-6-(trifluoromethyl)-1,2,3-benzotriazin-3(4H)-yl]methyl}cyclopentanecarboxylic acid] | 4.1
O=C(O)[C@@H]1[C@@H](Cn2nnc3ccc(C(F)(F)F)cc3c2=O)CC[C@H]1C(=O)c1ccc(OCC2CCC2)cc1 (single isomer, unassigned) [Example 47, (+)-(1RS,2RS,5SR)-2-[4-(Cyclobutylmethoxy)benzoyl]-5-{[4-oxo-6-(trifluoromethyl)-1,2,3-benzotriazin-3(4H)-yl]methyl}cyclopentanecarboxylic acid] | 0.025

Reference: patent US20170022171A1, “2,5-DISUBSTITUTED CYCLOPENTANECARBOXYLIC ACIDS AND THEIR USE” (Bayer Pharma Aktiengesellschaft, priority 2014, published 2017)
